Experimental data reported in paper PMC10945480 (Journal of Medicinal Chemistry, 2024).

Experiments:
[1] = Parallel artificial membrane permeability assay (PAMPA); conditions: 50 μM, 25 ℃, 3 h, verapamil = 100%, ranitidine = 0%
Method: 1. Parallel artificial membrane permeability assay (PAMPA). […]
evolution instruments from pION Inc. In the PAMPA assay, a set of sandwich plates consists of a 96-well microtiter donor plate at the bottom and a 96-well filter acceptor plate on the top from […]
The stock solutions of samples were prepared at 10 mM concentrations in DMSO and stored at 0 ℃ before use. Before being added to a 96-well filter plate, the stock solution was diluted first with buffer to achieve a final sample concentration of 50 μM and to reduce the DMSO concentration below 1% (v/v). Each well of the 96-well donor plate was filled with a 200 μL diluted sample solution (50 μM), and the 96-well filter acceptor plate was then wetted with a 5 μL 2% w/v dioleyoylphosphatidylcholine (DOPC) in n-dodecane and subsequently placed on the donor wells.
Immediately, the acceptor wells were filled with 200 μL of buffer solution and the PAMPA plate sandwich was sealed and incubated at 25 ℃ for 3 h. After reaching the permeation time, the PAMPA plate sandwich was separated and transferred to 96-well UV plates respectively. The amounts of drugs in both the donor and acceptor compartments were measured by comparing the experimental spectra with the UV spectrum (220∼400 nm) obtained from reference standards.

glioma U87 = assay: Cell viability, resazurin assay, U87; conditions: Homo sapiens, 24 h, read-out: U87 IC50
Method: (§3) Cells were maintained in a humidified incubator at 37 °C in 5% CO2, and cell viability was determined with the resazurin assay (Cayman Chemical, USA) after the incubation with compounds for indicated concentrations and times or DMSO as control.[72]

[2] = tested on: human vascular endothelial EA.hy926 cells; assay: Cell viability, resazurin assay, EA.hy926; conditions: EA.hy 926, 24 h, read-out: EAhy926 IC50
Method: as §3

breast cancer MDA-MB-231 = assay: Cell viability, resazurin assay, MDA-MB-231; conditions: Homo sapiens, MDA-MB-231, 24 h, read-out: MDA-MB-231 IC50
Method: as §3

platelet surface PDI = platelet surface PDI (Homo sapiens, UniProt P07237); assay: Cell surface PDI reductase activity on intact human platelets (Di-E-GSSG assay); conditions: read-out: Surface PDI IC50; intact human platelets, Di-E-GSSG, 5 μM DTT
platelet surface PDI, sequence (P07237 18-508): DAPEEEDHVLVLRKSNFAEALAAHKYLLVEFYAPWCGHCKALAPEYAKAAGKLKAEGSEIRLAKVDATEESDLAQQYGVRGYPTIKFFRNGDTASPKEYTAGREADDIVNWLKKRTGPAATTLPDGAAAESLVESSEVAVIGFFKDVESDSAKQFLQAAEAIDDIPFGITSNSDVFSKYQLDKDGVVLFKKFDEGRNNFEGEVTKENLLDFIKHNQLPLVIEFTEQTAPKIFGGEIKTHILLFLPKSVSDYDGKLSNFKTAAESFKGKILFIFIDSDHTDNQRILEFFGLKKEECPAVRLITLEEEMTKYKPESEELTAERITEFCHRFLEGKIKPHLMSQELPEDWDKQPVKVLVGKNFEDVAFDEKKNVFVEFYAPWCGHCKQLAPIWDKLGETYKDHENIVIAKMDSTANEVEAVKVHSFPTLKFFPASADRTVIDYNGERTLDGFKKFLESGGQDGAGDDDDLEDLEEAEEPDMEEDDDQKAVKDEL
Method: (§4) In this assay, a nonfluorescent substrate, dieosin glutathione disulfide (Di-E-GSSG), was reduced into a fluorescent product eosin-glutathione (E-GSH) by platelet surface PDI in the presence of 5 μM dithiothreitol (DTT).

lung cancer A549 = assay: Cell viability, resazurin assay, A549; conditions: Homo sapiens, A549, 24 h, read-out: A549 IC50
Method: as §3

washed human platelets [3] = assay: U46619-induced platelet aggregation; format: cell-based; conditions: Platelet; washed human platelets, U46619 (1 μM)
Method: (§1) The antiplatelet effects of the JUG derivatives were evaluated by measuring human platelet aggregation, which can be regulated by cell surface PDI. Platelet aggregation was induced with platelet activators U46619 (a mimetic of thromboxane A2) and collagen (binding to GPVI).
(§2) Washed human platelets were prepared from acid citrate dextrose-anticoagulated blood of healthy human volunteers as described previously.[73] The study was approved by the Institutional Review Board of Kaohsiung Medical University, and informed consent was obtained from every volunteer. Platelet aggregation was measured by using a turbidimetric aggregometer (Chrono-Log Co., USA) under stirring conditions (1200 rpm) at 37 °C. The extent of platelet aggregation was measured as the maximal increase of light transmission after the addition of the stimulators U46619 and collagen.[73] In the TCIPA assay, platelet aggregation was induced by A549 (1 × 10^4 cells/mL), MDA-MB-231 (1 × 10^2 cells/mL), or RPMI8226 (1 × 10^5 cells/mL) cancer cells in the presence of 0.375% plasma.[74]

[4] = biological target: purified human recombinant PDI (rPDI) (Homo sapiens, UniProt P07237); assay: Recombinant PDI reductase activity (Di-E-GSSG assay); conditions: read-out: rPDI IC50; human recombinant PDI, Di-E-GSSG, 5 μM DTT
purified human recombinant PDI (rPDI), sequence (P07237 18-508): as above
Method: as §4

[5] = tested on: multiple myeloma RPMI8226; assay: Cell viability, resazurin assay, RPMI8226; conditions: for S.I. (EAhy926/RPMI8226), selectivity index: 24 h IC50 ratio; for IC50: Homo sapiens, RPMI-8226, 24 h, read-out: RPMI8226 IC50
Method: as §3

washed human platelets [6] = assay: Collagen-induced platelet aggregation; format: cell-based; conditions: Platelet; washed human platelets, collagen (5 μg/mL)
Method: as §1, §2

[7] = UPLC-MS analysis of compound metabolites in water with or without GSH; format: physicochemical; conditions: 37 °C, 30 min
Method: GSH is the major cellular nonprotein thiol, which exists within cells at millimolar concentrations (1–8 mM) while is present extracellularly at only a few micromolar.[53] The high concentrations of intracellular GSH thus may compete with the binding of PDI to covalent PDI inhibitors.[54] […] In this assay, the noncovalent PDI inhibitor isoquercetin was used as a negative control.
Compounds (400 μM) were incubated in water (250 μL) with or without GSH (4 mM) at 37 °C for 30 min. The compound mixture was diluted with methanol (250 μL) and used for UPLC-MS analysis Metabolite analysis was performed on an ACQUITY UPLC I-Class/SQ Detector 2 (Waters, Milford, USA). The reverse phase BEH C18 column (100 mm × 2.1 mm, 1.7 μm, Waters) and VanGuard BEH C18 guard column (5 mm × 2.1 mm, 1.7 μm, Waters) were used. All data were acquired by Empower 3. The mobile phase for LC separation was Millipore water (A) and acetonitrile (B), and the program was as follows: 0.00 min 90% A → 0.50 min 90% A → 6.50 min 5% A → 8.50 min 5% A → 8.60 min 90% A → 9.00 min 90% A; at a rate of 0.4 mL/min for 9.00 min with 5 μL per injection. The temperature of the column oven was maintained at 40 °C. Mass spectrometer parameters were set as follows: cone voltage, 40.0 V, for positive/negative ion mode; desolvation temperature, 200 °C; cone gas flow(N2), 1 L/h; and desolvation gas flow (N2), 650 L/h.

[8] = tested on: washed human platelets coincubated with A549, MDA-MB-231, or RPMI8226 cancer cells; assay: Tumor cell-induced platelet aggregation (TCIPA); format: cell-based; conditions: anti-TF antibody 20 μg/mL, hirudin 0.01 μM, aspirin 100 μM, ticagrelor 1 μM
[9] = tested on: washed human platelets coincubated with A549 cancer cells; assay: Tumor cell-induced platelet secretion (PDGF, ATP); format: cell-based
Method: (a) Washed human platelets were coincubated with A549 cancer cells under the same conditions as described in Figure 4. Secretion of PDGF and ATP were determined with the enzyme-linked immunosorbent assay (ELISA) and bioluminescent assay, respectively. (b) A549 cancer cells were coincubated with washed human platelets at 37 °C and 5% CO2 in a cell culture incubator for 48 h. After washing with PBS, the numbers of viable cancer cells were determined by trypan blue exclusion. Data are mean ± SEM of at least three independent experiments.
Washed human platelets were coincubated with cancer cells under the same conditions as described in the TCIPA assay. After a 25 min incubation in the aggregometer, the samples were centrifuged at 13,000g for 1 min. The concentrations of PDGF-BB and ATP in the supernatants were determined using an ELISA kit (Abcam, Cambridge, UK) and an ATP bioluminescent assay kit (Sigma, MO, USA), respectively.[52]

Permeability (%) [1] [%] | IC50 (glioma U87) [µM] | IC50 (breast cancer MDA-MB-231) [µM] | IC50 (platelet surface PDI) [µM] | IC50 (lung cancer A549) [µM] | IC50 (washed human platelets [3]) [µM] | IC50 [4] [µM] | IC50 [5] [µM] | IC50 (washed human platelets [6]) [µM] | stability in aqueous conditions (UPLC-MS) ([7]; 400 μM in water) | GSH adduct formation after GSH treatment (UPLC-MS) ([7]; 400 μM, GSH 4 mM) | Molecule | IC50 [2] [µM] | S.I. (EAhy926/RPMI8226), selectivity index [5] | effect of comparators on TCIPA [8] | tumor cell-induced increase in extracellular PDGF and ATP (platelet secretion) [9]
61.4 | 12.6 ± 0.68 | 6.62 ± 1.79 | 1.12 ± 0.31 | 12 ± 1.47 | 1.35 ± 0.13 | 1.37 ± 0.26 | 0.57 ± 0.02 | 0.35 ± 0.03 |  |  | COc1ccc(OC2=CC(=O)c3cccc(O)c3C2=O)cc1 [Compound 21, 2-(4-Methoxyphenoxy)-8-hydroxynaphthalene-1,4-dione] | 6.03 ± 0.07 | 10.6 |  | 
42.95 | 5.13 ± 0.29 | 13.1 ± 1.59 | 0.53 ± 0.11 | 7.59 ± 0.16 | 4.61 ± 1.1 | 0.77 ± 0.2 | 3.88 ± 0.23 | 7.04 ± 1.71 |  |  | O=C1C=C(c2ccc(O)cc2O)C(=O)c2c(O)cccc21 [Compound 29, 2-(2,4-Dihydroxyphenyl)-8-hydroxynaphthalene-1,4-dione] | 5.49 ± 0.09 | 1.4 |  | 
12.64 | 11.2 ± 1.01 | 16 ± 1.35 | 0.47 ± 0.05 | 17.55 ± 0.06 | 1.37 ± 0.03 | 2.27 ± 0.8 | 5.89 ± 0.32 | 5.19 ± 1.22 | remained intact in aqueous conditions | only a small amount | COc1ccc(SC2=C(c3ccc(O)cc3O)C(=O)c3c(O)cccc3C2=O)cc1 [Compound 30, 2-(2,4-Dihydroxyphenyl)-3-((4-methoxyphenyl)thio)-8-hydroxynaphthalene-1,4-dione] | 11 ± 0.33 | 1.9 |  | 

More lines, now with the values behind:

Molecule | Permeability (%) [1] [%] | IC50 (glioma U87) [µM] | IC50 (breast cancer MDA-MB-231) [µM] | IC50 (platelet surface PDI) [µM] | IC50 (lung cancer A549) [µM] | IC50 (washed human platelets [3]) [µM] | IC50 [4] [µM] | IC50 [5] [µM] | IC50 (washed human platelets [6]) [µM] | stability in aqueous conditions (UPLC-MS) ([7]; 400 μM in water) | GSH adduct formation after GSH treatment (UPLC-MS) ([7]; 400 μM, GSH 4 mM) | IC50 [2] [µM] | S.I. (EAhy926/RPMI8226), selectivity index [5] | effect of comparators on TCIPA [8] | tumor cell-induced increase in extracellular PDGF and ATP (platelet secretion) [9]
O=C1C=C(Sc2ccc(F)cc2)C(=O)c2c(O)cccc21 [Compound 15, 2-((4-Fluorophenyl)thio)-8-hydroxynaphthalene-1,4-dione] | 85.4 | 17.3 ± 0.68 | 10.6 ± 0.85 | 1.67 ± 0.15 | 38.3 ± 2.65 | 1.88 ± 0.18 | 1.16 ± 0.47 | 2.59 ± 0.25 | 0.83 ± 0.11 |  |  | > 20 | >7.7 |  | 
O=C1C=C(Br)C(=O)c2c(O)cccc21 [Compound 17, 2-Bromo-8-hydroxynaphthalene-1,4-dione] | 16.9 | > 20 | 14.1 ± 0.79 | 1.13 ± 0.25 | 15.3 ± 0.74 | 1.76 ± 0.08 | 1.99 ± 0.63 | 4.21 ± 0.43 | 0.52 ± 0.21 |  |  | > 20 | >4.8 |  | 
CC(C)(C)c1ccc(CSC2=CC(=O)c3cccc(O)c3C2=O)cc1 [Compound 20, 2-((4-(tert-Butyl)benzyl)thio)-8-hydroxynaphthalene-1,4-dione] | 17.1 | > 20 | > 20 | 1.2 ± 0.31 | > 50 | 6.32 ± 0.3 | 2.01 ± 0.55 | 4.33 ± 0.34 | 2.92 ± 0.77 |  |  | > 20 | >4.6 |  | 
CCCSc1nc(N[C@@H]2C[C@H]2c2ccc(F)c(F)c2)c2nnn([C@@H]3C[C@H](OCCO)[C@@H](O)[C@H]3O)c2n1 [ticagrelor, reference compound] |  |  |  |  |  |  |  |  |  |  |  |  |  | no or little effect | not
hirudin |  |  |  |  |  |  |  |  |  |  |  |  |  | able to prevent the TCIPA | 
